Test results published in article PMC12157728, “Green and Efficient Synthetic Protocol for 1,3,5-Triazine Derivatives with Anticancer Potential Against Colorectal Cancer” (Molecules, 2025).
Where two headings read alike, the source gives them in different places.

Key:
[1] = test system: SW620; assay: MTS cytotoxicity assay, SW620 colorectal cancer cells; assay type: cell-based, human; conditions: for IC50: Homo sapiens, SW-620, MTS, 24 h incubation, n = 3, >100 = no detectable effect at highest concentration, * = IC50 could not be determined (high variability or no consistent dose-response), read-out: Cytotoxicity IC50 ± SD, SW620
Procedure: (§1) The human colorectal cancer cell lines SW620, SW480 were obtained from the American Type Culture Collection (ATCC). Both cell lines were cultured in Dulbecco’s Modified Eagle Medium (DMEM) (Capricorn Scientific GmbH, Manassas, USA), which was supplemented with 10% fetal bovine serum (FBS) and 50 µg/mL of gentamicin. Cells were incubated at 37 °C in a humidified atmosphere containing 5% CO₂. The cultures were passaged approximately every three days upon reaching confluence using a 0.25% trypsin-EDTA solution, at a ratio of approximately 1:3 to 1:4. For the MTS assay, cells were seeded at a density of 10,000 cells per well in 96-well plates. After 24 h, compounds were added at five concentrations ([…]), and cells were incubated for an additional 24 h. Cytotoxicity was assessed using the CellTiter 96® AQueous One Solution Cell Proliferation Assay (Promega), following the manufacturer’s instructions. Absorbance was measured at 490 nm using a microplate reader.
(§2) The IC₅₀ values were determined relative to the untreated control cells (without test compounds). All experiments were performed in triplicate (n = 3). Compounds for which IC₅₀ values could not be reliably determined were excluded from quantitative analysis. […] Such compounds are reported as ‘>100µM’ or ‘>100µM*’, respectively, in the results.

[2] = Lipophilicity by gradient RP-HPLC (C18, pH 7.4): CHI, chrom logD, PFI; assay type: physicochemical; design: key to PFI (Property Forecast Index): PFI = Chrom logD7.4 + number of aromatic rings; conditions: for chromatographic logD: C18 Hypersil GOLD reversed-phase HPLC column, pH 7.4, C18 column; for chromatographic logD / chrom logD (RP-HPLC): pH 7.4, Chrom logD = 0.0525 × CHI − 1.467; for CHI C18: C18 at pH 7.4; for chrom logD (RP-HPLC): C18 column; for PFI (Property Forecast Index): PFI = Chrom logD7.4 + #Ar, threshold 7
Source text: (§3) All chromatographic experiments adhered to the protocols established by Valko and colleagues, which were implemented in our laboratory. Essentially, biochromatography facilitated the assessment of lipophilicity and phospholipid affinity, represented as Chromatographic Hydrophobicity Index (CHI) values, through a gradient elution experiment, comparing results with model substances. The Prominence-1 LC-2030C 3D HPLC system, operated via LabSolution software (v6.81, Kyoto, Japan), was utilized for all chromatographic analyses. Throughout the research, distinct chromatographic columns were employed: IAM.PC.DD2 (10 × 4.6 mm × 10.0 µm with a guard column; Regis Technologies; USA) and C18 Hypersil GOLD^TM (100 mm × 4.6 mm; 5.0 µm with a guard column; Thermo Scientific, Waltham, MA, USA). Each column was paired with guard columns featuring the same stationary phases as the main column. Mobile phase A consisted of a water solution of 50 mM ammonium acetate (VWR International, Leuven, Belgium), adjusted to physiological pH 7.4 using concentrated ammonia solution (Avantor Performance Materials Poland S.A., Gliwice, Poland). The mobile phase was prepared with ultrapure water from a Milli-Q water purification system (Merck Millipore, Darmstadt, Germany), achieving a resistivity of 18.2 MΩ. For phospholipid binding assessments, mobile phase B was HPLC grade acetonitrile (Chempur, Piekary Śląskie, Poland), with a linear gradient from 0 to 85% B over 5.25 min, then maintained at 85% ACN for 0.5 min. The mobile phase was delivered at a flow rate of 1.5 mL/min, with the IAM.PC.DD2 column temperature held steady at 30 °C. For lipophilicity evaluations, the solvents and flow rate mirrored those used in IAM chromatography. The C18 Hypersil GOLD^TM column was kept at 40 °C. Similarly, a linear gradient was applied from 0 to 5.25 min, but, in this instance, it ranged from 2 to 98% ACN, with the maximum phase B concentration sustained for 2.5 min. Dimethyl sulfoxide (Avantor Performance Materials Poland S.A., Poland) was employed to dissolve the target solutes, forming a solution with a concentration of 200 µg/mL. Detection occurred in the UV region at a wavelength of 190–300 nm. The injection volume was 5 μL, and each compound was analyzed in duplicate, with retention time variation below 0.5%. Retention times for the studied molecules and reference standards are detailed in the Supplementary Material, Tables S1 and S2.
Experimentally determined CHI values were converted to chrom logD using the following equation [53]:Chrom logD = 0.0525 × CHI − 1.467(1)
In addition, the Property Forecast Index (PFI), the sum of the number of aromatic rings(#Ar), and a lipophilicity measure are used to reflect the principle of simultaneous minimization of lipophilicity and aromaticity, which supports the selection of oral clinical candidates in GKS [47].PFI = Chrom logD7.4 + #Ar(2)

[3] = test system: SW480; assay: MTS cytotoxicity assay, SW480 colorectal cancer cells; assay type: cell-based, human; conditions: for IC50: MTS, 24 h incubation, n = 3, >100 = no detectable effect at highest concentration, * = IC50 could not be determined (high variability or no consistent dose-response), read-out: Cytotoxicity IC50 ± SD, SW480
Procedure: as §1, §2

[4] = Phospholipid affinity by IAM-HPLC (IAM.PC.DD2 column); assay type: physicochemical; conditions: pH 7.4, phospholipidosis threshold >50
Source text: as §3

Compound	Cytotoxic activity in words, SW620 [1]	chromatographic logD [2]	CHI C18 [2]	chrom logD (RP-HPLC) [2]	PFI (Property Forecast Index) [2]	Cytotoxic activity in words, SW480 [3]	IC50 ([3]; Homo sapiens)	CHI IAM (IAM-HPLC) [4]	IC50 [1]	IC50 [3]
Cl.Fc1ccc(N2CCN(CCNc3nc(Nc4ccccc4Cl)nc(N4CCOCC4)n3)CC2)cc1 [Compound 7, N^2-(2-chlorophenyl)-N^4-(2-(4-(4-fluorophenyl)piperazin-1-yl)ethyl)-6-morpholino-1,3,5-triazine-2,4-diamine hydrochloride]	limited cytotoxic potential	4.44	112.6	4.443	7.44	limited cytotoxic potential	> 100 µM	49.59		
Cl.Clc1ccccc1Nc1nc(N2CCOCC2)nc(N2CCN(c3ccccc3)CC2)n1 [Compound 8, N-(2-chlorophenyl)-4-morpholino-6-(4-phenylpiperazin-1-yl)-1,3,5-triazin-2-amine hydrochloride]		4.15	107	4.148	7.15		20.6 ± 24.9 µM	47.79		
Cl.Clc1ccccc1Nc1nc(NCCOc2ccccc2)nc(N2CCOCC2)n1 [Compound 11, N^2-(2-chlorophenyl)-6-morpholino-N^4-(2-phenoxyethyl)-1,3,5-triazine-2,4-diamine hydrochloride]		4.01	104.4	4.012	7.01			45.92	5.85 ± 14.3 µM	
Cl.Clc1ccccc1Nc1nc(N2CCOCC2)nc(N2CCN(c3nsc4ccccc34)CC2)n1 [Compound 9, 4-(4-(benzo[d]isothiazol-3-yl)piperazin-1-yl)-N-(2-chlorophenyl)-6-morpholino-1,3,5-triazin-2-amine hydrochloride]	some activity	4.23	108.4	4.226	7.23	inactive	> 100 µM	48.02	22.1 ± 17.3 µM	
Cl.Clc1ccccc1Nc1nc(NCCc2ccccc2)nc(N2CCOCC2)n1 [Compound 3, N^2-(2-chlorophenyl)-6-morpholino-N^4-phenethyl-1,3,5-triazine-2,4-diamine hydrochloride]	limited cytotoxic potential	3.95		3.947		limited cytotoxic potential	> 100 µM	55.97	> 100 µM	
Cl.Clc1ccccc1Nc1nc(NCc2ccccc2)nc(N2CCOCC2)n1 [Compound 5, N^2-benzyl-N^4-(2-chlorophenyl)-6-morpholino-1,3,5-triazine-2,4-diamine hydrochloride]		3.95	103.1	3.947	6.95		43.1 µM	46.45	32.8 ± 23.4 µM	43.4 ± 12.2 µM
Cl.Clc1ccccc1Nc1nc(NCCNc2ccccc2)nc(N2CCOCC2)n1 [Compound 10, N^2-(2-chlorophenyl)-6-morpholino-N^4-(2-(phenylamino)ethyl)-1,3,5-triazine-2,4-diamine hydrochloride]	limited cytotoxic potential	3.94	102.9	3.936	6.94	limited cytotoxic potential	> 100 µM	44.55		
Cl.Clc1ccccc1Nc1nc(NCCCc2ccccc2)nc(N2CCOCC2)n1 [Compound 6, N^2-(2-chlorophenyl)-6-morpholino-N^4-(3-phenylpropyl)-1,3,5-triazine-2,4-diamine hydrochloride]	limited cytotoxic potential	4.71	117.6	4.706	7.71	limited cytotoxic potential	> 100 µM	51.63	> 100 µM	
O=c1[nH]cc(F)c(=O)[nH]1 [5-fluorouracil, reference compound]							15.5 ± 7.83 µM		21.7 ± 2.75 µM	
Cl.Clc1ccccc1Nc1nc(Nc2ccccc2)nc(N2CCOCC2)n1 [Compound 4, N^2-(2-chlorophenyl)-6-morpholino-N^4-phenyl-1,3,5-triazine-2,4-diamine hydrochloride]		4.1	106	4.098	7.10		> 100 µM	46.34	36.1 ± 46.5 µM	
